Each structure is given as a SMILES string.

Molecule `COCCOc1ccc(/C=C/C(=O)NS(=O)(=O)CC(F)(F)F)c(Oc2ncc(C(F)(F)F)cc2Cl)c1` came in with a melting point of 146 to 148 °C. With `N#Cc1cn(C2CCc3ccccc3NC2=O)nn1` (stereo not given) the figure was 214 to 216 °C; with `Cc1c(Cl)cc(C=O)c(O)c1Cl`, 94 to 95.1 °C. Take `CCOC(=O)c1c(CN(CC)CC)nc2ccc(Cl)cc2c1-c1ccc(Cl)cc1`: the melting point was 132 to 133 °C. `CN(C)CCSc1ccc2nccn2n1` gave a melting point of 52 to 54 °C. As to `COc1cc(OCCCO)c(C=CC(=O)c2ccc(S(=O)(=O)Nc3cc(C)on3)cc2)cc1-c1cccs1`, the melting point is 178 to 182 °C. For `O=C(O)COc1c(Br)cc(-c2c3ccccc3c(Br)c3oc4ccccc4c23)cc1Br`, the melting point was in the range of 250 to 252 °C. For `O=C1CCCC1Oc1cccc2onc(OCC3CCN(CC4(O)CCOCC4)CC3)c12` (stereo not given), the melting point worked out at 133 °C.

Regarding `NC1=NS(=O)(=O)c2cccc(Cl)c21`, the melting point worked out at 218 °C. In turn, `CC(C)(C)OC(=O)c1ccccc1-c1ccc(CNC(=S)NN)cc1` displayed a melting point above 45 °C. Molecule `O=C(NC1CN2CCC1CC2)c1cccc2nc(-c3ccccc3)oc12` (stereo not given) showed a melting point of 179 to 180 °C. Molecule `CN(c1cccc2cc(C(=O)NCC(C)(C#N)SCc3ccccc3)[nH]c12)S(=O)(=O)c1cccs1` (stereo not given) showed a melting point of 181 to 182 °C. For `Fc1ccc2c(c1)CCc1cccnc1C2=C1CCNCC1`, the melting point is 134 °C. `COc1ccnc(CCc2nc3cc(C)cnc3[nH]2)c1` displayed a melting point of 150 to 152 °C. As for `c1ccc(CCOc2ncnc3nc[nH]c23)cc1`, the melting point fell in the range of 209 to 210 °C. With `Cc1nc2cc(S(=O)(=O)n3c(CCC(=O)O)cc4cc(C(F)(F)F)ccc43)ccc2s1`, the melting point lay in the range of 235 to 236 °C. With `Cc1c(CO)c2cnnc(NCc3ccccc3)c2n1Cc1ccccc1` the figure was 238 to 240 °C; with `CCCc1ccc(C(O)(c2c(C)cc(C)c(C)c2OC)C(C)C)cc1` (stereo not given), 59 to 60 °C; with `CCN(CC)S(=O)(=O)c1ccc(C(CC2CCCC2)C(=O)Nc2nc3ccc(OC)nc3s2)cc1` (stereo not given), 150 to 152 °C. For `O=C(Nc1cccc(S(=O)(=O)N2CCOCC2)c1)c1cnn2c(C(F)(F)F)cc(-c3ccc(Cl)c(Cl)c3)nc12`, the melting point worked out at 239 °C.

The molecule `CN(CC(=O)c1ccc(N2CCOCC2)cc1)C(=O)OC(C)(C)C` showed a melting point of 87 to 89 °C. In the case of `CNCCNC(=NCCSCc1[nH]cnc1C)NC#N`, the melting point was in the range of 146 to 148 °C. Regarding `Cc1c(I)c(=O)n(C2CCCC2)c2nc(Nc3ccc(N4CCNCC4)cn3)ncc12`, the melting point is above 240 °C.

For `N=C(N)NCCSCc1nccs1`, the melting point was in the range of 120 to 122 °C. `CC[C@H](C)CCCCc1cnc(-c2ccc(OC(C)C)cc2)nc1` came in with a melting point of 47.2 to 47.7 °C. On to `Cc1ccc(C(=O)CCc2ccc(N)cc2)cc1`, for which the melting point was 59 to 61 °C. `C=CC(=O)OCCCCCCCCOc1ccc(C(=O)O)cc1` returned a melting point of 157 to 158 °C. The molecule `CCOP(=O)(CNC(Cc1ccc(Cl)cc1)c1cc(C(C)(C)C)c(O)c(C(C)(C)C)c1)OCC` (stereo not given) returned a melting point of 120 to 121 °C. `CCOC(=O)CC(NS(=O)(=O)c1cccc(-c2cccc(NC(=NC#N)NC3CC3)c2)c1)c1ccccc1` (stereo not given) yielded a melting point of 82 °C. Then `CCOc1nsc(NC(=O)NC)c1C(N)=O`, with 240 to 241 °C. `O=C(CC1CCCCC1)Nc1c(Cl)ccc2nc(N3CCC[C@@H](O)C3)ccc12` showed a melting point of 209 to 214 °C. Molecule `COc1cnc(C(=O)Nc2c(Cl)cncc2Cl)cc1OC1CCCC1` yielded a melting point of 129 to 130 °C. For the molecule `Cc1cc(C=NNC(=O)c2ccc(O)cc2)oc1C`, the melting point came to 251 °C. With `COc1ccc(/C=C/c2ccncc2)c2c1OC(C)(C)C2` the figure was 110 to 113 °C; with `CC(C)OCCNS(=O)(=O)NC(=O)OCCCc1ccc(OCc2ccco2)cc1Oc1ncc(C(F)(F)F)cc1Cl`, 118 to 120 °C.

A word on the melting point: it is the temperature, or range, at which the solid turns liquid.

The values above are taken from a melting point compilation (Tetko et al.; mined from patent text by program, amines drawn as free bases though some values may be those of a salt).
